Test results taken from patent US9072729B2, “Method for treating fibrosis and cancer with imidazolium and imidazolinium compounds” (Agency for Science, Technology and Research, priority 2008, dated 2015).

What was measured:
[1] = system: NF-κB P65; assay: Western blotting of nuclear NF-κB and AP-1 in HSC T6 cells; type: cell-based, rat; conditions: DBZIM 100 μM, TDBZIM 50 μM, 48 h
Protocol: FIG. 11. Western blotting of NF-κB and AP-1 (c-Fos, JunD and Fra-1) protein expressions in HSC T6 cells treated with DBZIM (100 μM) and TDBZIM (50 μM) for 48 h. 15 μg of nuclear protein was resolved in 4-12% gradient PAGE-SDS gel. The target proteins were recognized by the respective antibodies, and visualized by the ECL method. The membrane was stripped and probed for the Tata binding protein TBP used as the loading control.
Protein extracts were prepared by lysing a cell pellet in 10 volumes of boiled 1% sodium dodecyl sulfate (SDS) (90-95° C.) for 10 min for GFAP, or using NE-PER nuclear and cytoplasmic extraction reagents from Pierce (IL, USA) for nuclear proteins, or RIPA (Pierce, Ill., USA) for SMAA, fibronectin, collagen αI(I), TGF-β1 and TGFβ RI. Protein content was quantified using a BCA kit (Pierce, Ill., USA). […] The membrane was then probed with primary antibodies against GFAP (Dako, Denmark), SMAA (Sigma, USA), procollagen αI(I), fibronectin, c-Jun, c-Fos, JunB, JunD, Fra-1, Fra-2 (Santa Cruz Biotechnology, CA, USA), NF-κB P65, TGF-β1 and TGFβ RI (Abeam, UK), and detected by horseradish peroxidase-conjugated secondary antibody (Santa Cruz Biotechnology, CA, USA). […] Protein bands were recorded on X-ray film by reacting with ECL chemiluminescence reagents (Amersham Biosciences, NJ, USA). […]

[2] = system: p53; assay: Immunostaining and confocal microscopy of p53; type: cell-based, human; conditions: HLE, 48 h
Protocol: FIG. 39. IMSs-induced apoptosis was accompanied by accumulation of p53 in the nucleus. HLE cells were treated with the indicated dose of IBN 19 and IBN 24 for 48 h. The treated cells were fixed with 4% formaldehyde, immunostained with anti-p53 (green fluorescence) and DAPI (blue fluorescence), and analysed by confocal microscopy.
For immunostaining, HLE cells were seeded at a density of 1×10^4 in 8 well chamber slide. After 24 h incubation, the cells were replaced with 200 μl fresh 10% DMEM medium and then treated with 60 μM of IBN-15, 90 μM of IBN-19, 90 μM of IBN-24, 30 μM of IBN-25 and 20 μM of IBN-32 and 0.045% DMSO as control for 24 and 48 h. After washing, cells were fixed in 4% formaldehyde for 15 mins and permeabilized with 0.5% Triton X-100 in PBS for 10 mins. The cells were then blocked for 60 min in PBS containing 3% bovine serum albumin and then incubated for 1 h with a mouse antibody against nucleolin (MS-3, Santa Cruz; 1:100 in blocking buffer). After washing extensively with PBS, the cells were then incubated for 1 h at room temperature in dark with a FITC-conjugated antibody against mouse IgG (1:20 ilution). The slides were mounted with a VectaShield medium containing DAPI (Vector Laboratories, Burlingame, Calif.). Microscopy was performed with a Zeiss LSM 510 Meta (upright stand) confocal microscope.

[3] = system: caspase 3, caspase 9 and PARP; assay: Western blot of caspase-3, caspase-9 and PARP cleavage in HLE; type: cell-based, human; conditions: 72 h
Protocol: FIG. 38. IMSs, induce cleavage of caspase-3, caspase-9 and PARP. Western blot analysis for the effect of IBN 15, IBM 19, IBN 24, IBM 25, IBN 32 on the cleavage of caspase-3, Caspase-9 and PARP in HLE cells after 72 h exposure to indicated doses of IMSs.
The HLE cells were seeded at a density of 4×10^5 in 10 cm dish. After 24 h incubation, the cells were replaced with fresh 10% DMEM medium and then treated with 60 μM of IBN-15, 90 μM of IBN-19, 90 μM of IBN-24, 30 μM of IBN-25 and 20 μM of IBN 32 and 0.045% DMSO as control for 72 h. Whole cell lysates were prepared on day 3 with lysis buffer [125 mM Tris (pH 7.4), 2% Sodium dodecyl sulfate, 10% glycerol, 6M urea and a protease inhibitor cocktail (Sigma) and 0.02% Bromophenol blue]. The lysates were sonicated for 30 seconds and then heated for 5 mins at boiling temperature. The lysates were centrifuged at 13000 rpm for 10 mins and the protein concentration of each sample was estimated using the BCA protein assay. The lysates was then mixed with 5% 2-mercaptoethanol and stored at −80 C. For Western blotting, samples containing 50 μg of total cell lysate were loaded onto a SDS-PAGE and subjected to electrophoresis. Proteins were transferred to a nitrocellulose membrane and then blocked with 5% non-fat dry milk in Tris buffer saline containing 0.1% Tween 20 for 60 min at 37 C. The membranes were probed with a primary antibody overnight at 4 C in TEST containing 5% Bovine serum albumin. Then the membrane was incubated with horseradish peroxidase (HRP)-conjugated anti-rabbit or anti-mouse secondary antibodies (GE Health care, Chalfont St Giles, UK). Detection was performed with enhanced chemiluminescence (ECL) reagent (Amersham Arlington Heights, Ill.) according to the manufacturer's protocol. Rabbit polyclonal Phospho-p53 (Ser15, 20, 46, 392), anti-caspase-9, anti-caspase-3, anti-PARP antibodies were purchased from Cell Signaling Technology, Inc. (Beverly, Mass., USA). Antibodies against p53 and p21 were purchased from Santa Cruz Biotechnology (Santa Cruz, Calif., USA).

Row | Molecule | nuclear NF-κB P65 (active form) protein [1] | p53 expression and nuclear accumulation [2] | activation and cleavage of caspase 3, caspase 9 and PARP [3]
1 | 1,3,5-tris(4-methyl-imidazolium)-linked cyclophane.3Br [TDBZIM] | significantly attenuated |  | 
2 | [Br-].c1ccc(Cn2cc[n+](Cc3ccccc3)c2)cc1 [DBZIM, 1,3-bisbenzylimidazolium bromide] | significantly attenuated |  | 
3 | CC(=O)Oc1ccc(C[n+]2ccn(Cc3ccccc3)c2C)cc1.[Cl-] [IBN-19, 1-benzyl-3-(4-acetate-benzyl)-2-methyl-imidazolium chloride] |  | induced p53 expression and accumulation in the nucleus | induced significant activation and cleavage
4 | Cc1ccc(C[n+]2ccn(Cc3ccccc3)c2)cc1.[Cl-] [IBN-24, 1-benzyl-3-(4-methylbenzyl)-imidazolium chloride] |  | induced p53 expression and accumulation in the nucleus | induced significant activation and cleavage
